In general, IC50 refers to the concentration needed to halve the response being measured. Read a low IC50 as higher potency.

One assay relates to A2780 (ovarian). In words: Anti-proliferative activity (Cell-Titre luminescence) against A2780 ovarian cancer cells. Type of assay: cell-based. The settings on record: Homo sapiens, 72 h exposure, Cell-Titre luminescent reagent. On the procedure: (§1) The ability of compounds of the invention to inhibit the proliferation of cancer cells representative of non-small cell lung cancer and ovarian cancer (Table 2), pancreatic cancer, colorectal cancer and prostate cancer (Table 3) was assessed. Briefly, a predetermined number of cells as calculated from cell growth assays for each of the cell lines employed were seeded into their respective culture medium (using ATCC culture parameters—http://www.atcc.org) and cultured for 24 h at 37° C. and 5% CO2 in 96-well culture plates. Once attached, each cell line was then exposed to various concentrations of each respective analogue (30, 10, 3, 1, 0.3 and 0.1 μM), cultured for a further 72 h and exposed to Cell-Titre luminescent reagent (100 μL/well) for a further 30 min. Luminescence was captured using an EnVision multilabel reader and the data for each analogue concentration compared against no treatment control. Cell viability was normalised to control (vehicle alone) and dose response curves, and half maximal effective concentration (EC50) values were determined using Graph Pad Prism 6 (nonlinear regression sigmoidal dose-response variable slope).

Another assay has as its system A549 (NSCLC). In words: Anti-proliferative activity (Cell-Titre luminescence) against A549 non-small cell lung cancer cells. Type of assay: cell-based. The settings on record: Homo sapiens, 72 h exposure, Cell-Titre luminescent reagent. On the procedure: as §1

As for `CC(C)C(CNc1nc(-c2ccsc2)nc2ccccc12)N1CCN(C)CC1` (stereo not drawn) [Compound 1, N-(3-methyl-2-(4-methylpiperazin-1-yl)butyl)-2-(thiophen-3-yl)quinazolin-4-amine], the half-inhibitory concentration (IC50) came to 8.59 µM in the assay on A2780 (ovarian) (A2780, 72 h) and 8.06 µM with A549 (NSCLC) (A549, 72 h).

`OCCNc1nc(NCc2cccc(C(F)(F)F)c2)nc2ccccc12` [Compound 2, 2-((2-((3-(trifluoromethyl)benzyl)amino)quinazolin-4-yl)amino)ethan-1-ol]: the concentration for half-maximal inhibition (IC50) in the assay with A2780 (ovarian) (A2780) was determined as 10.7 µM; in the assay with A549 (NSCLC) (A549), 11.1 µM.

For `CC(C)C(CNc1nc(-c2cccs2)nc2ccccc12)N1CCN(C)CC1` (stereo not drawn) [Compound 3, N-(3-methyl-2-(4-methylpiperazin-1-yl)butyl)-2-(thiophen-2-yl)quinazolin-4-amine], the half-inhibitory concentration (IC50) with A2780 (ovarian) (A2780, 72 h) is 8.89 µM; with A549 (NSCLC) (A549, 72 h), 5.92 µM.

Turning to `CC(C)C(CNc1nc(-c2ccc[nH]2)nc2ccccc12)N1CCN(C)CC1` (stereo not drawn) [Compound 4, N-(3-methyl-2-(4-methylpiperazin-1-yl)butyl)-2-(1H-pyrrol-2-yl)quinazolin-4-amine], the 50% inhibitory concentration (IC50) with A2780 (ovarian) (A2780, 72 h) worked out at 8.3 µM; with A549 (NSCLC) (A549, 72 h), 8.56 µM.

Turning to `CC(C)C(CNc1nc(-c2ccco2)nc2ccccc12)N1CCN(C)CC1` (stereo not drawn) [Compound 6, 2-(furan-2-yl)-N-(3-methyl-2-(4-methylpiperazin-1-yl)butyl)quinazolin-4-amine], the half-inhibitory concentration (IC50) in the assay with A2780 (ovarian) (A2780, 72 h) was over 30 µM; with A549 (NSCLC) (A549, 72 h), over 30 µM.

In the case of `CC(C)C(CNc1nc(-c2ccoc2)nc2ccccc12)N1CCN(C)CC1` (stereo not drawn) [Compound 7, 2-(furan-3-yl)-N-(3-methyl-2-(4-methylpiperazin-1-yl)butyl)quinazolin-4-amine], the IC50 was found to be 10.8 µM with A2780 (ovarian) (A2780, 72 h) and 10.2 µM in the assay with A549 (NSCLC) (A549, 72 h).

Regarding `CC(C)C(CNc1nc(N2CCCC2)nc2ccccc12)N1CCN(C)CC1` (stereo not drawn) [Compound 8, N-(3-methyl-2-(4-methylpiperazin-1-yl)butyl)-2-(pyrrolidin-1-yl)quinazolin-4-amine], the 50% inhibitory concentration (IC50) with A2780 (ovarian) (A2780, 72 h) was over 30 µM; in the assay on A549 (NSCLC) (A549, 72 h), over 30 µM.

Consider `CC(C)C(CNc1nc(-n2cccc2)nc2ccccc12)N1CCN(C)CC1` (stereo not drawn) [Compound 9, N-(3-methyl-2-(4-methylpiperazin-1-yl)butyl)-2-(1H-pyrrol-1-yl)quinazolin-4-amine], for which the IC50 amounted to 5.79 µM with A2780 (ovarian) (A2780, 72 h) and 4.94 µM in the assay with A549 (NSCLC) (A549, 72 h).

In the case of `CN1CCN(CCNc2nc(-c3cccs3)nc3ccccc23)CC1` [Compound 10, N-(2-(4-methylpiperazin-1-yl)ethyl)-2-(thiophen-2-yl)quinazolin-4-amine], the IC50 in the assay on A2780 (ovarian) (A2780, 72 h) is over 30 µM; with A549 (NSCLC) (A549, 72 h), over 30 µM.

`CN1CCN(CCNc2nc(-c3ccc[nH]3)nc3ccccc23)CC1` [Compound 12, N-(2-(4-methylpiperazin-1-yl)ethyl)-2-(1H-pyrrol-2-yl)quinazolin-4-amine]: the IC50 in the assay on A2780 (ovarian) (A2780, 72 h) was found to be 10.2 µM; in the assay with A549 (NSCLC) (A549, 72 h) it was 8.24 µM.

As to `CN1CCN(CCNc2nc(-c3ccco3)nc3ccccc23)CC1` [Compound 14, 2-(furan-2-yl)-N-(2-(4-methylpiperazin-1-yl)ethyl)quinazolin-4-amine], the 50% inhibitory concentration (IC50) was over 30 µM in the assay on A2780 (ovarian) (A2780, 72 h) and over 30 µM with A549 (NSCLC) (A549, 72 h).

With `CN1CCN(CCNc2nc(-c3ccoc3)nc3ccccc23)CC1` [Compound 15, 2-(furan-3-yl)-N-(2-(4-methylpiperazin-1-yl)ethyl)quinazolin-4-amine], the IC50 was over 30 µM in the assay with A2780 (ovarian) (A2780, 72 h) and over 30 µM with A549 (NSCLC) (A549, 72 h).

Regarding `CN1CCN(CCNc2nc(N3CCCC3)nc3ccccc23)CC1` [Compound 16, N-(2-(4-methylpiperazin-1-yl)ethyl)-2-(pyrrolidin-1-yl)quinazolin-4-amine], the IC50 in the assay with A2780 (ovarian) (A2780, 72 h) was 22.5 µM; in the assay on A549 (NSCLC) (A549, 72 h), over 30 µM.

As for `CN1CCN(CCNc2nc(-n3cccc3)nc3ccccc23)CC1` [Compound 17, N-(2-(4-methylpiperazin-1-yl)ethyl)-2-(1H-pyrrol-1-yl)quinazolin-4-amine], the half-maximal inhibitory concentration (IC50) in the assay on A2780 (ovarian) (A2780, 72 h) was 22.7 µM; in the assay on A549 (NSCLC) (A549, 72 h), over 30 µM.

In the case of `OCCNc1nc(-c2cccs2)nc2ccccc12` [Compound 18, 2-((2-(thiophen-2-yl)quinazolin-4-yl)amino)ethan-1-ol], the IC50 in the assay with A2780 (ovarian) (A2780, 72 h) is over 30 µM; with A549 (NSCLC) (A549, 72 h) it was over 30 µM.

With `OCCNc1nc(-c2ccsc2)nc2ccccc12` [Compound 19, 2-((2-(thiophen-3-yl)quinazolin-4-yl)amino)ethan-1-ol], the half-inhibitory concentration (IC50) with A2780 (ovarian) (A2780, 72 h) is over 30 µM; in the assay with A549 (NSCLC) (A549, 72 h), over 30 µM.

For `OCCNc1nc(-c2ccc[nH]2)nc2ccccc12` [Compound 20, 2-((2-(1H-pyrrol-2-yl)quinazolin-4-yl)amino)ethan-1-ol], the half-maximal inhibitory concentration (IC50) with A2780 (ovarian) (A2780, 72 h) was over 30 µM; in the assay on A549 (NSCLC) (A549, 72 h) it was over 30 µM.

For `OCCNc1nc(-c2cc[nH]c2)nc2ccccc12` [Compound 21, 2-((2-(1H-pyrrol-3-yl)quinazolin-4-yl)amino)ethan-1-ol], the IC50 in the assay with A2780 (ovarian) (A2780, 72 h) was over 30 µM; in the assay on A549 (NSCLC) (A549, 72 h), over 30 µM.

`OCCNc1nc(-c2ccco2)nc2ccccc12` [Compound 22, 2-((2-(furan-2-yl)quinazolin-4-yl)amino)ethan-1-ol]: the half-inhibitory concentration (IC50) in the assay with A2780 (ovarian) (A2780, 72 h) was over 30 µM; in the assay on A549 (NSCLC) (A549, 72 h), over 30 µM.

With `OCCNc1nc(-c2ccoc2)nc2ccccc12` [Compound 23, 2-((2-(furan-3-yl)quinazolin-4-yl)amino)ethan-1-ol], the IC50 was over 30 µM in the assay on A2780 (ovarian) (A2780, 72 h) and over 30 µM in the assay on A549 (NSCLC) (A549, 72 h).

On to `OCCNc1nc(N2CCCC2)nc2ccccc12` [Compound 24, 2-((2-(pyrrolidin-1-yl)quinazolin-4-yl)amino)ethan-1-ol], for which the half-maximal inhibitory concentration (IC50) in the assay on A2780 (ovarian) (A2780, 72 h) is over 30 µM; in the assay with A549 (NSCLC) (A549, 72 h), over 30 µM.

Take `OCCNc1nc(-n2cccc2)nc2ccccc12` [Compound 25, 2-((2-(1H-pyrrol-1-yl)quinazolin-4-yl)amino)ethan-1-ol]: the 50% inhibitory concentration (IC50) is over 30 µM with A2780 (ovarian) (A2780, 72 h) and over 30 µM in the assay on A549 (NSCLC) (A549, 72 h).

As to `OCCNc1nc(Nc2ccccc2)nc2ccccc12` [Compound 26, 2-((2-(phenylamino)quinazolin-4-yl)amino)ethan-1-ol], the half-maximal inhibitory concentration (IC50) was determined as 16.9 µM in the assay with A2780 (ovarian) (A2780, 72 h) and 22 µM in the assay with A549 (NSCLC) (A549, 72 h).

Regarding `OCCNc1nc(Nc2cccc(C(F)(F)F)c2)nc2ccccc12` [Compound 27, 2-((2-((3-(trifluoromethyl)phenyl)amino)quinazolin-4-yl)amino)ethan-1-ol], the 50% inhibitory concentration (IC50) in the assay on A2780 (ovarian) (A2780, 72 h) is 6.74 µM; with A549 (NSCLC) (A549, 72 h) it was 2.84 µM.

With `OCCNc1nc(Nc2ccc(C(F)(F)F)cc2)nc2ccccc12` [Compound 28, 2-((2-((4-(trifluoromethyl)phenyl)amino)quinazolin-4-yl)amino)ethan-1-ol], the IC50 is over 30 µM in the assay with A2780 (ovarian) (A2780, 72 h) and over 30 µM with A549 (NSCLC) (A549, 72 h).

For `COc1cccc(Nc2nc(NCCO)c3ccccc3n2)c1` [Compound 29, 2-((2-((3-methoxyphenyl)amino)quinazolin-4-yl)amino)ethan-1-ol], the IC50 was found to be 6.91 µM in the assay on A2780 (ovarian) (A2780, 72 h) and 9.21 µM in the assay on A549 (NSCLC) (A549, 72 h).

On to `COc1ccc(Nc2nc(NCCO)c3ccccc3n2)cc1` [Compound 30, 2-((2-((4-methoxyphenyl)amino)quinazolin-4-yl)amino)ethan-1-ol], for which the IC50 was over 30 µM in the assay on A2780 (ovarian) (A2780, 72 h) and over 30 µM in the assay on A549 (NSCLC) (A549, 72 h).

As to `COc1cccc(CNc2nc(NCCO)c3ccccc3n2)c1` [Compound 33, 2-((2-((3-methoxybenzyl)amino)quinazolin-4-yl)amino)ethan-1-ol], the IC50 in the assay on A2780 (ovarian) (A2780, 72 h) amounted to 8.95 µM; in the assay with A549 (NSCLC) (A549, 72 h) it was 21 µM.

Regarding `COc1ccc(CNc2nc(NCCO)c3ccccc3n2)cc1` [Compound 34, 2-((2-((4-methoxybenzyl)amino)quinazolin-4-yl)amino)ethan-1-ol], the half-inhibitory concentration (IC50) is 12.8 µM with A2780 (ovarian) (A2780, 72 h) and 14.1 µM with A549 (NSCLC) (A549, 72 h).

Regarding `OCCNc1nc(NCCc2ccccc2)nc2ccccc12` [Compound 35, 2-((2-(phenethylamino)quinazolin-4-yl)amino)ethan-1-ol], the IC50 with A2780 (ovarian) (A2780, 72 h) was 7.47 µM; with A549 (NSCLC) (A549, 72 h), over 30 µM.

Take `OCCNc1nc(NCCc2cccc(C(F)(F)F)c2)nc2ccccc12` [Compound 36, 2-((2-((3-(trifluoromethyl)phenethyl)amino)quinazolin-4-yl)amino)ethan-1-ol]: the IC50 in the assay with A2780 (ovarian) (A2780, 72 h) amounted to 2.32 µM; in the assay on A549 (NSCLC) (A549, 72 h), 2.67 µM.

For the compound `OCCNc1nc(NCCc2ccc(C(F)(F)F)cc2)nc2ccccc12` [Compound 37, 2-((2-((4-(trifluoromethyl)phenethyl)amino)quinazolin-4-yl)amino)ethan-1-ol], the concentration for half-maximal inhibition (IC50) with A2780 (ovarian) (A2780, 72 h) was found to be 3.82 µM; in the assay on A549 (NSCLC) (A549, 72 h) it was 3.82 µM.

Turning to `COc1cccc(CCNc2nc(NCCO)c3ccccc3n2)c1` [Compound 38, 2-((2-((3-methoxyphenethyl)amino)quinazolin-4-yl)amino)ethan-1-ol], the concentration for half-maximal inhibition (IC50) with A2780 (ovarian) (A2780, 72 h) was 18.8 µM; in the assay on A549 (NSCLC) (A549, 72 h), 26.8 µM.

In the case of `COc1ccc(CCNc2nc(NCCO)c3ccccc3n2)cc1` [Compound 39, 2-((2-((4-methoxyphenethyl)amino)quinazolin-4-yl)amino)ethan-1-ol], the IC50 in the assay on A2780 (ovarian) (A2780, 72 h) is 11.9 µM; in the assay with A549 (NSCLC) (A549, 72 h), over 30 µM.

With `CN1CCN(CCNc2nc(Nc3ccccc3)nc3ccccc23)CC1` [Compound 40, N^4-(2-(4-methylpiperazin-1-yl)ethyl)-N^2-phenylquinazoline-2,4-diamine], the IC50 worked out at 4.34 µM in the assay on A2780 (ovarian) (A2780, 72 h) and 6.27 µM with A549 (NSCLC) (A549, 72 h).

As for `CN1CCN(CCNc2nc(Nc3ccc(C(F)(F)F)cc3)nc3ccccc23)CC1` [Compound 42, N^4-(2-(4-methylpiperazin-1-yl)ethyl)-N^2-(4-(trifluoromethyl)phenyl)quinazoline-2,4-diamine], the IC50 came to 1.69 µM in the assay on A2780 (ovarian) (A2780, 72 h) and 4.94 µM with A549 (NSCLC) (A549, 72 h).

The record behind these values is US20230339866A1, “Quinazoline compounds and the use thereof in the treatment of cancer” (TROBIO THERAPEUTICS PTY LTD, priority 2020, published 2023).
